Data taken from publication PMC9456400 (International Journal of Molecular Sciences, 2022).

Columns and labels:
[1] = system: ALK-negative A549 NSCLC cells; assay: MTT cell viability assay; details: read-out: IC50 (cell viability)
Method: (§2) Cell viability effects of lorlatinib were determined using the colorimetric MTT (3-4,5-dimethylthiazol-2-yl-2,5-diphenyl-tetrazolium bromide) reduction assay. Dose–response curves to graded concentrations of lorlatinib were plotted as a percentage of the control cell absorbance, which was obtained from control cells containing the vehicle (DMSO v/v) processed simultaneously. For each treatment, cell viability was evaluated using the following equation: (OD570 of the treated sample/OD570 of the untreated sample) × 100.

[2] = cited from earlier work
[3] = system: H3122 NSCLC cell line (ALK rearrangement variant 1); assay: MTT cell viability assay; details: read-out: IC50 (cell viability)
Method: as §2

HepG2 cells = assay: Oil Red O staining of neutral lipids; format: cell-based, human; details: HepG2, acute exposure 48 h; silibinin 100 μmol/L as co-treatment with lorlatinib
Method: To confirm these findings, we employed an independent in vitro model of fatty liver disease involving non-tumorigenic HepG2 cells, which are routinely employed as an inducible fatty liver cell model to screen for therapeutic drugs to eliminate lipid accumulation.
(§1) For assessment of neutral lipid formation, cells were washed in PBS, fixed with 4% paraformaldehyde for 30 min, washed in distilled water, and then briefly incubated in 60% isopropanol. Following equilibration, cells were stained with a working solution (60%) of Oil Red O for 20 min. An Oil Red O stock solution was prepared by dissolving 0.35% w/v Oil Red O in 100 mL 100% isopropanol. HCS LipidTOX™ Green Neutral Lipid Stain (Invitrogen; Cat. #H34475) was employed as a second staining cocktail for visualization of intracellular neutral lipids. Formaldehyde fixation and preparing/using the labeling solution was carried out as per the manufacturer’s instructions.

[4] = system: H2228 NSCLC cell line (ALK rearrangement variant 3a/b); assay: MTT cell viability assay; details: read-out: IC50 (cell viability)
Method: as §2

[5] = cited from earlier work; remark: listed apart in the source
Huh-7 cells = assay: Oil Red O and LipidTOX staining of neutral lipids; format: cell-based, human; details: Huh-7, chronic exposure 7 days; silibinin 10 μmol/L as co-treatment with lorlatinib
Method: We first employed a conventional index of fatty liver disease––the intracellular accumulation of neutral lipids (steatosis)––to confirm the ability of lorlatinib to trigger hypertriglyceridemia and hypercholesteremia.
as §1

[6] = single 100 mg oral dose ref 46, 47
[7] = pooled safety analysis (n = 295) ref 14, 15

IC50 [1]: 19000 ± 5000 nM
IC50 [3]: 3 ± 0.2 nM
IC50 [4]: 900 ± 200 nM
Compound: C[C@H]1Oc2cc(cnc2N)-c2c(nn(C)c2C#N)CN(C)C(=O)c2ccc(F)cc21 [lorlatinib, (10R)-7-amino-12-fluoro-2,10,16-trimethyl-15-oxo-10,15,16,17-tetrahydro-2H-8,4-(metheno)pyrazolo [4,3-h][2,5,11]-benzoxadiazacyclotetradecine-3-carbonitrile]
Fraction metabolized during first-pass hepatic or pre-systemic metabolism ([2]; human, in vivo): 12%
Hepatic extraction ratio ([2]; human, in vivo): < 30%
Peak plasma concentration [2, 6]: > 2 µmol/L
Time to peak plasma concentration [2, 6]: 0.5 to 4 h
Accumulation of neutral lipids (lipid droplets) (HepG2 cells): greater number of larger lipid droplets than untreated cells
Incidence of hypercholesteremia and hypertriglyceridemia ([5]; lung cancer patients): > 80%
Hyperlipidemia, median time to onset ([5]; patients): 15 days
Frequency of grade 3 or 4 elevations in total cholesterol and triglycerides (both) ([5]; phase 2 study B7461001 (NCT01970865) ref 2): 16%
Incidence of hypercholesteremia [5, 7]: 61%
Incidence of hypertriglyceridemia [5, 7]: 82%
Accumulation of neutral lipids (lipid droplets) (Huh-7 cells): accumulated large amounts of lipid droplet-like neutral lipids
